Measurements taken from patent US4865991A, “Methods for partitioning of organic flavor compounds” (priority 1987, dated 1989).
Read-outs that look alike come from different tables or passages of the source.

Key:
[1] = HPLC determination of partition coefficients in acetonitrile phase systems
Protocol: In these tests, known organic flavor volatile compounds were added to 2 ml aliquots of 50:50 acetonitrile:water, 22° C., in 4 ml HPLC vials, mixed thoroughly and capped with polytetrafluoroethylene septum caps. […] The samples were injected (20 uL) into a continuous HPLC apparatus. […] The HPLC apparatus was a Waters WISP model 710B sample injector, 6000A pump, and 481 UV detector set at 210 nm (Waters Associates, Milford, MA). A Radiomatic Flo-One Beta unit was used for peak integration (Radiomatic Instruments, Inc., Tampa FL). An Alltech adsorbosphere C18 column, 5 micron, 250 mm×4.6 mm was used (Alltech Associates, Deerfield, IL) to achieve component separation in accordance with conventional HPLC processing. The mobile phase had the following composition: 45% acetonitrile, 55% water, 0.2% KH2 PO4, pH 3.0. The flow rate was 1.0 ml/minute. The vials were then placed in a freezer (-20° C.) for one hour. 250 uL of the resulting organic and aqueous phases were then placed in a limited volume insert vial, the sample injected and peak integrations acquired. The partition coefficient, P, was calculated by dividing the organic phase by the aqueous phase integration values.
To determine the time period appropriate for complete partitioning, four sulfur volatiles and 1-methionine were treated as above, except that samples were taken at different times up to 60 minutes FIGS. 2a, 2b and 3).

[2] = Binary acetonitrile/water cold phase extraction of caffeine from cola beverage; format: physicochemical; conditions: cola plus acetonitrile, -20° C. for 1 hour
Protocol: […]. The sample was shaken for 20 seconds and was chilled to -20° C. for 1 hour. 0.3 ml of the organic layer was then placed in an HPLC sampling vial. The HPLC system used was: a phenyl reversed phase column (Alltech Associates, Deerfield, Ill.) 250×4.6 mm, 5 micron. 25% acetonitrile, 75% water 0.2% w/v KH2 PO4, pH 3.0 mobile phase, 1.5 ml/min. flow rate 20 uL injection by the autosampler. UV detection at 210 nm.

[3] = Acetonitrile/water 1:1, 1 hr. at -20° C., organic phase divided by aqueous phase integration values
[4] = Acetonitrile/water/chloroform 5:5:1, 22° C., organic phase divided by aqueous phase integration values

Partition Coefficient Ternary [1] | Partition Coefficient Binary ([1]; 60 min) | Compound | Partition Coefficient Binary [1, 3] | Partition Coefficient Ternary [1, 4] | extraction into the organic phase [2]
2.3 | 3.3 | OCCc1ccccc1 [2-phenyl ethanol] |  |  | 
 |  | CSCC[C@H](N)C(=O)O [1-methionine] | 0.03 | 0.2 | 
17.6 | 14.3 | CCCC(=O)OCC [Ethyl Butyrate] |  |  | 
 |  | Cn1c(=O)c2c(ncn2C)n(C)c1=O [Caffeine] |  |  | selectively extracted into the organic phase
 |  | CCCCC(=O)OCC [Ethyl Valerate] | 25.9 | 25.6 | 
 |  | CCCCCCCC(=O)O [Caprylic acid] | 20.8 | 20.6 | 
 |  | S [Hydrogen sulfide] | 4.6 | 5.2 | 
6.6 | 5.2 | CSC [Dimethyl sulfide] |  |  | 
0.2 | 0.2 | O=C1O[C@H]([C@@H](O)CO)[C@@H](O)[C@@H]1O [1-galactono-1,4-lactone] |  |  | 
 |  | N[C@@H](Cc1ccccc1)C(=O)O [1-phenylalanine] | 0.1 | 0.3 | 
